The source of these data is article PMC11284088, “Synthesis and biochemical characterization of naphthoquinone derivatives targeting bacterial histidine kinases” (The Journal of Antibiotics, 2024).

Broadly, the MIC is the lowest concentration that inhibits growth of the organism. Usually IC50 stands for the concentration at which inhibition is half-maximal.

Entries after “also recorded” stand apart in the source; their conditions may differ. Like-named read-outs stand apart in the source and are kept apart here.

The test system of one experiment is B. subtilis 168 strain. Kind of experiment: MIC, standard microtiter broth dilution. It is filed as cell-based, Bacillus subtilis. Conditions: for MIC: B. subtilis 168 strain grown in LB broth at 37 °C for 18 h; for antibacterial (antimicrobial) activity against B. subtilis: in words. The method, then:
The minimum inhibitory concentrations (MICs) were determined using the standard microtiter broth dilution method, as recommended by the guidelines of the Clinical Laboratory Standards Institute.
(Dilution methods test growth across graded concentrations, often in twofold steps.)

Another experiment deals with T1, WalK (Bacillus subtilis, UniProt Q45614).
T1 construct: His6 (N); made in house; host or cells: E. coli BL21(DE3)
T1 sequence (Q45614 207-611): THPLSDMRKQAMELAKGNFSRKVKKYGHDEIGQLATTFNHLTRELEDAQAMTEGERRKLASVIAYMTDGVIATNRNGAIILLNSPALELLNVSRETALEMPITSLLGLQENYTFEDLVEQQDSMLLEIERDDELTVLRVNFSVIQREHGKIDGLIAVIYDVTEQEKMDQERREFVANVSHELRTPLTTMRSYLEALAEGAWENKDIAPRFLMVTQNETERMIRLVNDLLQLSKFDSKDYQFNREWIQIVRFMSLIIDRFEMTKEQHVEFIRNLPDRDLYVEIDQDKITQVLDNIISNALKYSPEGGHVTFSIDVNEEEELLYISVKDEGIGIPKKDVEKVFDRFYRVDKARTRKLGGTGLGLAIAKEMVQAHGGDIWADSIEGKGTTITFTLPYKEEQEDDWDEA
Briefly: Inhibition of WalK autophosphorylation. It is filed as biochemical. The note with it: for IC50: against WalK from B. subtilis, autophosphorylation, N.I. = no inhibition; for inhibitory activity against WalK: in words. Set-up: key to WalK: WalK + inhibitory effect against WalK. The method, then: Autophosphorylation of WalK was conducted at 0.5 or 1 µM in a reaction mixture comprising 50 mM Tris-HCl (pH 8.5), 100 mM KCl, 5 mM MgCl2, 100 mM NH4Cl, 5% DMSO, and 40 µM ATP. The total reaction volume was 40 µl, and the incubation lasted for 30 min at 25 °C. To terminate the reaction, 40 µl of 2 × SDS-PAGE sample buffer was added, followed by a 10-min incubation at 37 °C. Subsequently, SDS-PAGE (10% acrylamide) was performed, and the samples were subjected to Western blotting using a PVDF membrane (Bio-Rad 1620177). The primary antibody used was anti-N3-phosphohistidine antibody (clone SC56-2) (EDM Millipore Corp), and the secondary antibody was goat anti-rabbit IgG-HRP (Abcam). A 2% bovine serum albumin (Sigma-Aldrich) solution served as the blocking reagent. Signals originating from phosphorylated HKs were detected using the HRP substrate (Immobilon Western Chemiluminescent HRP substrate, Millipore) and the Multi Imager II Multi Box (Bio Tools). Signal intensities were quantified with Image Analysis Software CS Analyzer 4 (ATTO). IC50 values (50% inhibitory concentrations) were determined using Prism 7 software (GraphPad).
In the assessment of naphthoquinone derivatives, the initial screening for inhibitory activity against WalK autophosphorylation was conducted at 50 or 100 µg ml^−1. Compounds displaying inhibitory activity were further examined to ascertain their IC50 values against WalK. For the chosen compounds, inhibition against EvgS, EnvZ, PhoQ, and CpxA HKs was also assessed. These reactions involved the use of 1 µM HK, 40 µM ATP, and a 30 min incubation at 25 °C.

Another experiment relates to iseA (formerly yoeB). Briefly: RT-qPCR of iseA expression in B. subtilis cells. The note with it: summary class, iseA gene expression in B. subtilis 168. Type of experiment: cell-based, B. subtilis 168. Set-up: key to RT-qPCR: RT-qPCR + iseA gene expression was induced in B. subtilis 168; − no effect. The method, then:
In brief, the cells were aerated and grown to an optical density at 660 nm of 0.3–0.4 at 37 °C. After the addition of DMSO or naphthoquinone derivatives, the cultures were further incubated for 5 min, cooled on ice for 1 min, and then harvested by centrifugation (2300 × g, 10 min, 4 °C). The cells were resuspended in 800 µl of RNA Lysis Buffer (SV Total RNA Isolation System, Z3100, Promega), transferred to a screw-capped tube containing 400 mg of glass beads (GB-01, TOMY), and disrupted using MicroSmash (MS-100, TOMY Medico) at 3000 rpm, 60 s ON/OFF for 6 cycles. RNA was then purified from 175 µl of the supernatant using the SV Total RNA Isolation System, followed by DNase I treatment (Turbo DNA-free^TM Kit, AM1907, Invitrogen) to remove any residual genomic DNA contamination. […] The expression levels of the genes were normalized using the 16S rRNA gene as an internal standard. Each assay was performed at least three times. Statistical analyses were conducted using Tukey’s multiple comparison test (GraphPad Prism 7).
On the technique in general: Quantitative PCR measures a nucleic acid by following its amplification.

Experiment [1] has as its target T2, WalK (207-611, B. subtilis) (Bacillus subtilis, UniProt Q45614).
T2 construct: His6 (N); made in house; host or cells: E. coli BL21(DE3)
Briefly: Affinity selection/mass spectrometry, competition with waldiomycin. It is filed as binding. The method, then:
The affinity selection/mass spectrometry (AS/MS) is a method which can detect the binding of small compounds to proteins. This experiment was carried out following a previously established protocol (Fig. 5), with the exception of using Millipore 96-well filter plates (MSBVN1210) instead of MAHAN4510. In the experiment, 1 µM of WalK (207-611, B. subtilis, refer to Table S2) was combined and incubated with 5 µM of waldiomycin and competitor compounds in a reaction buffer. The buffer composition was as follows: 25 mM Tris-HCl (pH 8.0), 50 mM KCl, 50 mM NH4Cl, 5 mM MgCl2, 1 mM DTT, and 0.1% CHAPS. Following the incubation, the mixture was subjected to size-exclusion chromatography via centrifugation to eliminate free compounds. The protein that was eluted was then denatured by adding an equal volume of methanol/0.1% formic acid. The compounds that were subsequently released from the protein were detected using an LC/MS system. The concentrations of waldiomycin were calculated from the value of peak areas using calibration curve that covered the range of 1 nM to 1 µM (R^2 = 0.9991). The concentration of waldiomycin in the eluate of WalK and waldiomycin without competitor was 10.1 nM, and percentages to this value were calculated for other samples.

[2] abbreviates: Bacillus subtilis, read-out: MIC.

T2 sequence (Q45614 207-611): as above

For `O=C(O)c1cc(NC2=C(Cl)C(=O)c3c(cccc3[N+](=O)[O-])C2=O)ccc1O` [2n, 5-((3-chloro-5-nitro-1,4-dioxo-1,4-dihydronaphthalen-2-yl)amino)-2-hydroxybenzoic acid], in the experiment on B. subtilis 168 strain, the minimum inhibitory concentration (MIC) stood at 128 µg/mL and the “antibacterial (antimicrobial) activity against B. subtilis” value (“antibacterial (antimicrobial) activity” below) is given as “no or a very weak antimicrobial activity”. Moreover, on WalK, the IC50 entry is reported as “N.I” and the “inhibitory activity against WalK” value is recorded as “did not show any inhibitory activity; also recorded: did not inhibit WalK”.
Take `O=C(O)c1cc(NC2=C(Cl)C(=O)c3c(O)ccc(O)c3C2=O)ccc1O` [2m, 5-((3-chloro-5,8-dihydroxy-1,4-dioxo-1,4-dihydronaphthalen-2-yl)amino)-2-hydroxybenzoic acid]: in the experiment on B. subtilis 168 strain, the minimal inhibitory concentration (MIC) worked out at 64 µg/mL and the “antibacterial (antimicrobial) activity” value is “weaker”. Also, on WalK (read-out: IC50), the IC50 is 45 µM. Moreover, at WalK, the “inhibitory activity against WalK” value is “weaker”.
For `O=C1C(Cl)=C(N2CCNCC2)C(=O)c2c(O)ccc(O)c21` [2a, 2-chloro-5,8-dihydroxy-3-(piperazin-1-yl)naphthalene-1,4-dione], the RT-qPCR entry in the experiment on iseA (formerly yoeB) is on record as “+”. In experiment [1] (compound 30 and 100 µM, in words), the “effect on the signal of waldiomycin” value is listed as “reduced the signal of waldiomycin in a dose-dependent manner”. Further, the “signal of waldiomycin compared to only waldiomycin with WalK” value in experiment [1] (compound at 100 µM, waldiomycin 5 µM, WalK 1 µM) is reported as “about 10%”. Moreover, the “binding to WalK competitive with that of waldiomycin” value in experiment [1] (in words) was “competitive; also recorded: competitively interacted with waldiomycin”. Besides, the IC50 on WalK (read-out: IC50) was found to be 32.4 µM. Also, at WalK, the “inhibitory activity against WalK” value is reported as “weaker”. The WalK result at WalK (summary class) is “+”.
Turning to `O=C1C(Cl)=C(Nc2cccc(O)c2)C(=O)c2c(O)ccc(O)c21` [2g, 2-chloro-5,8-dihydroxy-3-((3-hydroxyphenyl)amino)naphthalene-1,4-dione], in the experiment on B. subtilis 168 strain, the minimal inhibitory concentration (MIC) was determined as 1 µg/mL and the “antibacterial (antimicrobial) activity” value was “equal to waldiomycin or even stronger”. In addition, the IC50 at WalK (read-out: IC50) turned out to be 31.7 µM.
In the case of `O=C1C(Cl)=C(NCCc2ccc(O)c(O)c2)C(=O)c2c(O)ccc(O)c21` [2f, 2-chloro-3-((3,4-dihydroxyphenethyl)amino)-5,8-dihydroxynaphthalene-1,4-dione], in the experiment with B. subtilis 168 strain, the MIC stood at 8 µg/mL and the “antibacterial (antimicrobial) activity” value is reported as “equal to waldiomycin or even stronger”. Moreover, on WalK, the half-inhibitory concentration (IC50) entry is “N.I” and the “inhibitory activity against WalK” value is “did not show any inhibitory activity; also recorded: inactive”.
For `O=C1C(Cl)=C(Nc2ccc(Cl)c(O)c2)C(=O)c2c(O)ccc(O)c21` [2i, 2-chloro-3-((4-chloro-3-hydroxyphenyl)amino)-5,8-dihydroxynaphthalene-1,4-dione], the minimum inhibitory concentration (MIC) in the experiment with B. subtilis 168 strain (listed as C00017) was determined as 4 µg/mL. Further, the “antibacterial (antimicrobial) activity” value with B. subtilis 168 strain is “equal to waldiomycin or even stronger”. Also, the IC50 entry at WalK (listed as C00017) is “N.I”. The “inhibitory activity against WalK” value at WalK is “did not show any inhibitory activity; also recorded: inactive”.
`O=C1C(Cl)=C(NCCO)C(=O)c2c(O)ccc(O)c21` [2e, 2-chloro-5,8-dihydroxy-3-((2-hydroxyethyl)amino)naphthalene-1,4-dione]: in the experiment with B. subtilis 168 strain, the minimum inhibitory concentration (MIC) amounted to 2 µg/mL and the “antibacterial (antimicrobial) activity” value is “equal to waldiomycin or even stronger”. Besides, on WalK, the concentration for half-maximal inhibition (IC50) result was “N.I” and the “inhibitory activity against WalK” value was “did not show any inhibitory activity; also recorded: inactive”.
With `O=C1C(Cl)=C(N2CCNCC2)C(=O)c2ccccc21` [2c, 2-chloro-3-(piperazin-1-yl)naphthalene-1,4-dione], in the experiment on B. subtilis 168 strain, the minimal inhibitory concentration (MIC) was found to be 8 µg/mL and the “antibacterial (antimicrobial) activity” value was “equal to waldiomycin or even stronger”. Moreover, at WalK, the IC50 entry is “N.I” and the “inhibitory activity against WalK” value is “did not show any inhibitory activity; also recorded: inactive”.
Turning to `COc1ccc(NC2=C(Cl)C(=O)c3c(O)ccc(O)c3C2=O)cc1` [2k, 2-chloro-5,8-dihydroxy-3-((4-methoxyphenyl)amino)naphthalene-1,4-dione], in the experiment on B. subtilis 168 strain, the MIC was >128 µg/mL and the “antibacterial (antimicrobial) activity” value was “no or a very weak antimicrobial activity”. Moreover, at WalK, the IC50 entry was “N.I” and the “inhibitory activity against WalK” value is “did not show any inhibitory activity; also recorded: noninhibitory; also recorded: did not inhibit WalK”.
As to `O=C1C(Nc2ccc(Cl)c(O)c2)=CC(=O)c2c(O)cccc21` [2j, 2-((4-chloro-3-hydroxyphenyl)amino)-5-hydroxynaphthalene-1,4-dione], the MIC in the experiment with B. subtilis 168 strain (setting [2]) came to 4 µg/mL. Further, the “antibacterial (antimicrobial) activity” value with B. subtilis 168 strain is “equal to waldiomycin or even stronger”. Moreover, the IC50 on WalK (read-out: IC50) stood at 75.1 µM.
Turning to `O=C1C(N2CCNCC2)=C(Cl)C(=O)c2c1cccc2[N+](=O)[O-]` [2d, 3-chloro-5-nitro-2-(piperazin-1-yl)naphthalene-1,4-dione], in the experiment on B. subtilis 168 strain, the MIC was found to be 8 µg/mL and the “antibacterial (antimicrobial) activity” value was “equal to waldiomycin or even stronger”. In addition, the IC50 at WalK (read-out: IC50) was determined as 305 µM.
Consider `O=C1c2onc(-c3ccccc3)c2C(=O)c2cccc(O)c21` [3c, 8-hydroxy-3-phenylnaphtho[2,3-d]isoxazole-4,9-dione], for which the MIC in the experiment with B. subtilis 168 strain (setting [2]) stood at 0.5 µg/mL. For the same molecule, in the experiment on B. subtilis 168 strain, the “antibacterial (antimicrobial) activity” value was “equal to waldiomycin or even stronger”. On WalK, the half-maximal inhibitory concentration (IC50) result is “N.I” and the “inhibitory activity against WalK” value is on record as “did not show any inhibitory activity”.
On to `O=C1c2onc(-c3ccccc3)c2C(=O)c2c(O)ccc(O)c21` [3a, 5,8-dihydroxy-3-phenylnaphtho[2,3-d]isoxazole-4,9-dione], for which, in the experiment on B. subtilis 168 strain, the minimum inhibitory concentration (MIC) was 0.5 µg/mL and the “antibacterial (antimicrobial) activity” value is “equal to waldiomycin or even stronger”. Also, the 50% inhibitory concentration (IC50) at WalK (read-out: IC50) amounted to 51 µM.
